From patent US20240245682A1, “ALPHA-V-BETA-8 INTEGRIN INHIBITORS AND USES THEREOF” (Pliant Therapeutics, Inc., priority 2022, published 2024)

Assays:
Assay in all cases: AlphaScreen proximity-based integrin binding assay with TGF-b1 LAP
Details in all cases: values given as ranges
[1] = target: human integrin αVβ8 (Homo sapiens, UniProt P06756+P26012)
Description: (§1) The biochemical potency of the disclosed compounds was determined using the AlphaScreen® (Perkin Elmer, Waltham, MA) proximity-based assay as described previously (Ullman E F et al., Luminescent oxygen channeling immunoassay: Measurement of particle binding kinetics by chemiluminescence. Proc. Natl. Acad. Sci. USA, Vol. 91, pp. 5426-5430, June 1994, herein incorporated by reference in its entirety). To gauge the potency of inhibitors of binding to each of human integrins αVβ1, αVβ6, and αVβ8, inhibitor compounds were independently incubated with one of αVβ1, αVβ6, or αVβ8, together with TGF-b1 LAP and biotinylated anti-LAP antibody plus acceptor and donor beads, following the manufacture's recommendations. The donor beads were coated with streptavidin. […] All incubations occurred at room temperatures in 50 mM Tris-HCl, pH 7.5, 0.1% BSA supplemented with 1 mM each CaCl2 and MgCl2.
(§2) The order of reagent addition was as follows:
(§3) 1. αVβ1, αVβ6, or αVβ8 integrin, test inhibitor compound, LAP, biotinylated anti-LAP antibody and acceptor beads were all added together.
(§4) 2. After 2 hours, donor beads were added. After another 30 minute incubation, samples were then read.
(§5) Integrin binding was evaluated by exciting donor beads at 680 nm, and measuring the fluorescent signal produced, between 520-620 nm, using a Biotek Instruments (Winooski, VT, USA) SynergyNeo2 multimode plate reader. Compound potency was assessed by determining inhibitor concentrations required to reduce fluorescent light output by 50%. Data analysis for IC50 determinations was carried out by nonlinear four parameter logistic regression analysis using Dotmatics ELN Software (Core Informatics Inc., Branford, Ct). […] Comp #in the Table and Examples below refers to the compound of the corresponding Example number as described in the Synthetic Examples.

[2] = target: human integrin αVβ1 (Homo sapiens, UniProt P05556+P06756)
Description: as §1, §2, §3, §4, §5

[3] = target: human integrin αVβ6 (Homo sapiens, UniProt P06756+P18564)
Description: as §1, §2, §3, §4, §5

Chain of human integrin αVβ1 (P06756 31-992 limits assumed): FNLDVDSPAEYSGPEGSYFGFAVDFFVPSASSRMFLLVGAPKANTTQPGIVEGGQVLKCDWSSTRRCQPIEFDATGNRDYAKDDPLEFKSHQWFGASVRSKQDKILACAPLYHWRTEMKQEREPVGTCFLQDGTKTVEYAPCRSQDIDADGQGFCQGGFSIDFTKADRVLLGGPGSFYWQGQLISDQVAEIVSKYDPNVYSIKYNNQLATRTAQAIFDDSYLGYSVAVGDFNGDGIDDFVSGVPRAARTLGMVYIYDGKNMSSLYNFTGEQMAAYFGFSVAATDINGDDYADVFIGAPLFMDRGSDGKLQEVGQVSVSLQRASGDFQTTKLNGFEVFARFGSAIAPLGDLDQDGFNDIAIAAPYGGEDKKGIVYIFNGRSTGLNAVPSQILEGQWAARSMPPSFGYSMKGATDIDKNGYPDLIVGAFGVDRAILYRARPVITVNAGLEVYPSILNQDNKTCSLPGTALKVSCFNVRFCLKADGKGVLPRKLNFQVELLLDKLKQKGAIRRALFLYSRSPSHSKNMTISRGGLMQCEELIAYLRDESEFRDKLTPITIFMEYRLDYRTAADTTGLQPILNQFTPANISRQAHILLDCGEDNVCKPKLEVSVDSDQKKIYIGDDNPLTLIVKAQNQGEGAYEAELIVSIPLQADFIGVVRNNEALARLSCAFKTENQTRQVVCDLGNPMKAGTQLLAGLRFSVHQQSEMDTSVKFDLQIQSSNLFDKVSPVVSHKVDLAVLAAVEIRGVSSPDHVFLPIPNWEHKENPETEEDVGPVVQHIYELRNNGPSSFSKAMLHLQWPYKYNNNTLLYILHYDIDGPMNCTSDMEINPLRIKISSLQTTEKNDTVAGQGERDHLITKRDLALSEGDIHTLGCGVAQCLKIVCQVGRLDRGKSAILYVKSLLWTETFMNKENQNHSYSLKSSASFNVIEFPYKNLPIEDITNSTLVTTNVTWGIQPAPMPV
Chain of human integrin αVβ1 (P05556 21-728 limits assumed): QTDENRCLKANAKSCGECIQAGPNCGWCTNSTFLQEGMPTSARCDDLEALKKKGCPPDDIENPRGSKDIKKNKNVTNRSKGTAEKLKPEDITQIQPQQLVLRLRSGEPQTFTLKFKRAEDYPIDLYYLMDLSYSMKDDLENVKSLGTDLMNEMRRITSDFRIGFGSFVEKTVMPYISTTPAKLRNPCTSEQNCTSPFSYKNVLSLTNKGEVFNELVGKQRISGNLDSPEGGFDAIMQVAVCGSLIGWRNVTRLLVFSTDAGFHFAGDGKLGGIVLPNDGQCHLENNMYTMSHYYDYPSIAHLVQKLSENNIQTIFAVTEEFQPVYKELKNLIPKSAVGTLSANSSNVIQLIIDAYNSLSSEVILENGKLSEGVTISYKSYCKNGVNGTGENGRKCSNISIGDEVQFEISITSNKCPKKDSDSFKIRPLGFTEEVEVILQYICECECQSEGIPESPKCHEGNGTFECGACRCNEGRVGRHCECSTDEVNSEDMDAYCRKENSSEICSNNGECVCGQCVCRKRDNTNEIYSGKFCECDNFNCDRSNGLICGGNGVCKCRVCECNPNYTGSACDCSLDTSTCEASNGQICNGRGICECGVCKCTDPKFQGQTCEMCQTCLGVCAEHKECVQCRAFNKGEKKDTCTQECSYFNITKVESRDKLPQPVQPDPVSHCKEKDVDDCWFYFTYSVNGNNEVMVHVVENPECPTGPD
Chain of human integrin αVβ6 (P06756 31-992 limits assumed): as the sequence (P06756 31-992 limits assumed) above
Chain of human integrin αVβ6 (P18564 22-707 limits assumed): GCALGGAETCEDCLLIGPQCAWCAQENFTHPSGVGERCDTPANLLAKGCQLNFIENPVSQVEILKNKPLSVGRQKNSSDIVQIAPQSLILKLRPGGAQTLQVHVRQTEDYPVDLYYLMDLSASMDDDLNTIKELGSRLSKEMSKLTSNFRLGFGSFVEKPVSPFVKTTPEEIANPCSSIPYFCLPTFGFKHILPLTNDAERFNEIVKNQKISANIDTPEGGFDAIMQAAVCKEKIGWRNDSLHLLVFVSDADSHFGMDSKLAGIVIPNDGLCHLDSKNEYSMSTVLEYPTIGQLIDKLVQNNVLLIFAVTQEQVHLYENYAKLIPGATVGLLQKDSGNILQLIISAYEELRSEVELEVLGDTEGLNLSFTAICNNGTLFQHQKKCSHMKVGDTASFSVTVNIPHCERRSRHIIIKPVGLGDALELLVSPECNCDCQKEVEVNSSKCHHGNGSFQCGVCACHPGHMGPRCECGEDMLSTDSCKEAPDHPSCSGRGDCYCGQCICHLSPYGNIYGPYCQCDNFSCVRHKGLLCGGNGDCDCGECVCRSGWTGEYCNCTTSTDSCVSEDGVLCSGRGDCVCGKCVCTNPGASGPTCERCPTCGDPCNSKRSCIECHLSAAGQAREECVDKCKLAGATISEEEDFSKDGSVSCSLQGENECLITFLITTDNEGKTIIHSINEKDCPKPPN
Chain of human integrin αVβ8 (P06756 31-992 limits assumed): as the sequence (P06756 31-992 limits assumed) above
Chain of human integrin αVβ8 (P26012 43-684 limits assumed): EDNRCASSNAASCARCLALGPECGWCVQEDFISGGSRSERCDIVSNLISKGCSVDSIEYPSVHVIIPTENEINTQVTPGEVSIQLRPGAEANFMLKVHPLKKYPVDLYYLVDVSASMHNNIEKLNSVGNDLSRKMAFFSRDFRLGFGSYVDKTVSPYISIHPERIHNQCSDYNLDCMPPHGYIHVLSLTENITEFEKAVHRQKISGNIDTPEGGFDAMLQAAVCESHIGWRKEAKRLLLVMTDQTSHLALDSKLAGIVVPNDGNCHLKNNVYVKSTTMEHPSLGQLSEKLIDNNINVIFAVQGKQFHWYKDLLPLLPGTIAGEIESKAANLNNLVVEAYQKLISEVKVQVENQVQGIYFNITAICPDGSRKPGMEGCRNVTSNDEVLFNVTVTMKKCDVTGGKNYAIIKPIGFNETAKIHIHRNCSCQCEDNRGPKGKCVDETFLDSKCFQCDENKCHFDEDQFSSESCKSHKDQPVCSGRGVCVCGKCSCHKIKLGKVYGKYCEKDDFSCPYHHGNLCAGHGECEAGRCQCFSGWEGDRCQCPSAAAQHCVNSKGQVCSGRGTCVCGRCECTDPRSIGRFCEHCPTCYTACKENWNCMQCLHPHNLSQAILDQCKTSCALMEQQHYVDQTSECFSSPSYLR

Row | IC50 [1] | IC50 [2] | IC50 [3] | SMILES
1 | 50 to 150 nM | < 50 nM | ≥ 500 nM | CC(C)(C(=O)NC(CCOCCCCc1ccc2c(n1)NCCC2)C(=O)O)c1ccccc1 (stereo not drawn) [Compound 1, N-(2-methyl-2-phenylpropanoyl)-O-(4-(5,6,7,8-tetrahydro-1,8-naphthyridin-2-yl)butyl)homoserine]
2 | 50 to 150 nM | < 50 nM | ≥ 500 nM | CC(C)(C(=O)N[C@@H](CCOCCCCc1ccc2c(n1)NCCC2)C(=O)O)c1ccccc1 [Compound 2, N-(2-methyl-2-phenylpropanoyl)-O-(4-(5,6,7,8-tetrahydro-1,8-naphthyridin-2-yl)butyl)-L-homoserine]
3 | < 50 nM | < 50 nM | ≥ 500 nM | C[C@H](C(=O)N[C@@H](CCOCCCCc1ccc2c(n1)NCCC2)C(=O)O)c1ccccc1 [Compound 3, N—((S)-2-phenylpropanoyl)-O-(4-(5,6,7,8-tetrahydro-1,8-naphthyridin-2-yl)butyl)-L-homoserine]
4 | 150 to 250 nM | 50 to 150 nM | ≥ 500 nM | COc1ccc(F)c(F)c1C(C)(C)C(=O)N[C@@H](CCOCCCCc1ccc2c(n1)NCCC2)C(=O)O [Compound 4, N-(2-(2,3-difluoro-6-methoxyphenyl)-2-methylpropanoyl)-O-(4-(5,6,7,8-tetrahydro-1,8-naphthyridin-2-yl)butyl)-L-homoserine]
5 | 50 to 150 nM | < 50 nM | ≥ 500 nM | CC(C)(C(=O)N[C@@H](CCOCCCCc1ccc2c(n1)NCCC2)C(=O)O)c1c(F)cccc1OC(F)F [Compound 5, N-(2-(2-(difluoromethoxy)-6-fluorophenyl)-2-methylpropanoyl)-O-(4-(5,6,7,8-tetrahydro-1,8-naphthyridin-2-yl)butyl)-L-homoserine]
6 | < 50 nM | < 50 nM | ≥ 500 nM | O=C(O)[C@H](CCOCCCCc1ccc2c(n1)NCCC2)NC(=O)C1(c2ccccc2Cl)CC1 [Compound 6, N-(1-(2-chlorophenyl)cyclopropane-1-carbonyl)-O-(4-(5,6,7,8-tetrahydro-1,8-naphthyridin-2-yl)butyl)-L-homoserine]
7 | < 50 nM | < 50 nM | ≥ 500 nM | O=C(O)[C@H](CCOCCCCc1ccc2c(n1)NCCC2)NC(=O)C1(c2c(Cl)cccc2Cl)CC1 [Compound 7, N-(1-(2,6-dichlorophenyl)cyclopropane-1-carbonyl)-O-(4-(5,6,7,8-tetrahydro-1,8-naphthyridin-2-yl)butyl)-L-homoserine]
8 | 50 to 150 nM | < 50 nM | ≥ 500 nM | CC(C)(C(=O)N[C@@H](CCOCCCCc1ccc2c(n1)NCCC2)C(=O)O)c1ccccc1Cl [Compound 8, N-(2-(2-chlorophenyl)-2-methylpropanoyl)-O-(4-(5,6,7,8-tetrahydro-1,8-naphthyridin-2-yl)butyl)-L-homoserine]
9 | < 50 nM | < 50 nM | ≥ 500 nM | O=C(O)[C@H](CCOCCCCc1ccc2c(n1)NCCC2)NC(=O)C1(c2ccccc2F)CC1 [Compound 9, N-(1-(2-fluorophenyl)cyclopropane-1-carbonyl)-O-(4-(5,6,7,8-tetrahydro-1,8-naphthyridin-2-yl)butyl)-L-homoserine]
10 | 50 to 150 nM | < 50 nM | ≥ 500 nM | O=C(O)[C@H](CCOCCCCc1ccc2c(n1)NCCC2)NC(=O)C1(c2ccccc2)CC1 [Compound 10, N-(1-phenylcyclopropane-1-carbonyl)-O-(4-(5,6,7,8-tetrahydro-1,8-naphthyridin-2-yl)butyl)-L-homoserine]
11 | 50 to 150 nM | < 50 nM | ≥ 500 nM | O=C(O)[C@H](CCOCCCCc1ccc2c(n1)NCCC2)NC(=O)C1(c2cnccn2)CC1 [Compound 11, N-(1-(pyrazin-2-yl)cyclopropane-1-carbonyl)-O-(4-(5,6,7,8-tetrahydro-1,8-naphthyridin-2-yl)butyl)-L-homoserine]
12 | ≥ 500 nM | 50 to 150 nM | ≥ 500 nM | O=C(O)[C@H](CCOCCCCc1ccc2c(n1)NCCC2)NC(=O)C1(c2ncccn2)CC1 [Compound 12, N-(1-(pyrimidin-2-yl)cyclopropane-1-carbonyl)-O-(4-(5,6,7,8-tetrahydro-1,8-naphthyridin-2-yl)butyl)-L-homoserine]
13 | < 50 nM | < 50 nM | ≥ 500 nM | Cc1ncccc1C1(C(=O)N[C@@H](CCOCCCCc2ccc3c(n2)NCCC3)C(=O)O)CC1 [Compound 13, N-(1-(2-methylpyridin-3-yl)cyclopropane-1-carbonyl)-O-(4-(5,6,7,8-tetrahydro-1,8-naphthyridin-2-yl)butyl)-L-homoserine]
14 | < 50 nM | < 50 nM | ≥ 500 nM | O=C(O)[C@H](CCOCCCCc1ccc2c(n1)NCCC2)NC(=O)C1(c2ncc(F)cc2Cl)CC1 [Compound 14, N-(1-(3-chloro-5-fluoropyridin-2-yl)cyclopropane-1-carbonyl)-O-(4-(5,6,7,8-tetrahydro-1,8-naphthyridin-2-yl)butyl)-L-homoserine]
15 | < 50 nM | < 50 nM | ≥ 500 nM | O=C(O)[C@H](CCOCCCCc1ccc2c(n1)NCCC2)NC(=O)C1(c2ncccc2Cl)CC1 [Compound 15, N-(1-(3-chloropyridin-2-yl)cyclopropane-1-carbonyl)-O-(4-(5,6,7,8-tetrahydro-1,8-naphthyridin-2-yl)butyl)-L-homoserine]
16 | < 50 nM | < 50 nM | ≥ 500 nM | Cc1ccncc1C1(C(=O)N[C@@H](CCOCCCCc2ccc3c(n2)NCCC3)C(=O)O)CC1 [Compound 16, N-(1-(4-methylpyridin-3-yl)cyclopropane-1-carbonyl)-O-(4-(5,6,7,8-tetrahydro-1,8-naphthyridin-2-yl)butyl)-L-homoserine]
17 | < 50 nM | 50 to 150 nM | ≥ 500 nM | Cc1ccccc1C1(C(=O)N[C@@H](CCOCCCCc2ccc3c(n2)NCCC3)C(=O)O)CC1 [Compound 17, O-(4-(5,6,7,8-tetrahydro-1,8-naphthyridin-2-yl)butyl)-N-(1-(o-tolyl)cyclopropane-1-carbonyl)-L-homoserine]
18 | < 50 nM | 50 to 150 nM | ≥ 500 nM | COc1cccc(C2(C(=O)N[C@@H](CCOCCCCc3ccc4c(n3)NCCC4)C(=O)O)CC2)n1 [Compound 18, N-(1-(6-methoxypyridin-2-yl)cyclopropane-1-carbonyl)-O-(4-(5,6,7,8-tetrahydro-1,8-naphthyridin-2-yl)butyl)-L-homoserine]
19 | < 50 nM | < 50 nM | ≥ 500 nM | Cc1ncncc1C1(C(=O)N[C@@H](CCOCCCCc2ccc3c(n2)NCCC3)C(=O)O)CC1 [Compound 19, N-(1-(4-methylpyrimidin-5-yl)cyclopropane-1-carbonyl)-O-(4-(5,6,7,8-tetrahydro-1,8-naphthyridin-2-yl)butyl)-L-homoserine]
20 | ≥ 500 nM | 250 to 500 nM | ≥ 500 nM | Cc1cccc(C2(C(=O)N[C@@H](CCOCCCCc3ccc4c(n3)NCCC4)C(=O)O)CC2)n1 [Compound 20, N-(1-(6-methylpyridin-2-yl)cyclopropane-1-carbonyl)-O-(4-(5,6,7,8-tetrahydro-1,8-naphthyridin-2-yl)butyl)-L-homoserine]
